Tests used:
[1] = DMP433 (N-nitroso-ribociclib) content in ribociclib base (B10) and ribociclib succinate (B12, drug substance) batches and process experiments, LC-MS/MS or HPLC-HRMS; type: physicochemical; conditions: for DMP433 [ppm] LOQ (0.0625 ppm) / DMP433 [ppm], result in brackets (extrapolation, estimate of actual value below LOQ): ribociclib base (LEE011 B10); for DMP433 in LEE011 B12: laboratory scale salt formation; for DMP433 in LEE011-B12 (IP): nitrite in IPA 1.6 ppb; for DMP433 (LOQ: 30 ppb): LEE011-B10, laboratory scale 30 g experiments
Text: The method of testing for the presence and/or total amount of nitrosamines (such as the presence and/or total amount of N-nitroso-ribociclib in free or salt form) that is used in the methods of the invention may be any method which allows for the detection of nitrosamines in a composition. For example, the method may involve the Griess test described above. In such a method, the nitrosamines may be first denitrosated (e.g., by photolysis) to form a nitrite, which is then detected in the Griess test. Alternatively, the method may include high performance liquid chromatography (HPLC)- and/or gas chromatography (GC)-mass spectroscopy. An example of a method of testing for the presence and amount of nitrosamines (namely N-nitroso-ribociclib) is provided herein as Example 14. […]
2.7. […] Dissolve the substance using vortex and fill to volume with solvent (50% MeOH). • 3. Filter through 0.2 μm PVDF (polyvinylidene difluoride) or PTFE (polytetrafluoroethylene) filter into a HPLC amber vial, discard the first 0.5 ml.
A calibration curve for DMP433 is created, using calibration standard solutions L1-L6, and expressing the relationship between responses (peak areas) and standard concentrations (ng/ml). For L1, the average of 6 injections is used. Linear regression is weighed with 1/amount. […]

[2] = Nitrite content (ion chromatography; LC-FLD with DAN derivatisation; Griess test) in drug substance, intermediates, reagents, solvents, filters, excipients; type: physicochemical; conditions: for Nitrite in LEE011 B12: laboratory scale salt formation; for Nitrite (LOQ: 0.1 ppm) / Nitrite, value in brackets below LOQ: LEE011-B10, laboratory scale 30 g experiments; for Nitrite (ppb): LEE011-DS, further testing
Text: The method of testing for the presence and/or total amount of nitrites that is used in the methods of the invention may be any method which allows for the detection and/or quantitation of nitrites in a composition. For example, the method may be the Griess test. The Griess test allows for the detection and analysis of nitrite by the formation of a red-pink colour upon treatment of a nitrite-containing sample with the Griess reagent. The Griess reagent consists of two components in an acidic solution: an aniline derivative and a coupling agent. The most common arrangements use sulfanilamide and N-(1-naphthyl)ethylenediamine. For example 0.2% N-(1-naphthyl)ethylenediamine dihydrochloride and 2% sulfanilamide in 5% phosphoric acid may be used as a Griess reagent. Other aniline derivatives that may be used in a Griess reagent include sulfanilic acid, nitroaniline, and p-aminoacetophenone.
The Griess test involves two subsequent reactions, as shown in the scheme below. When the aniline derivative (e.g., sulfanilamide) is added, the nitrite ion reacts with it in the Griess diazotization reaction to form a diazonium salt, which then reacts with N-(1-naphthyl)ethylenediamine in an azo-coupling reaction, forming a pink-red azo-dye. Using a spectrophotometer, the nitrite concentration can then be quantitatively detected.
Additionally purified water; e.g. Milli Q • 2.
• 10 mM KH2PO4 Weigh accurately about 1.361 g of KH2PO4 into a 1 L volumetric flask, dissolve it in approximately 950 mL of additionally purified water and adjust the pH to 8.0 (with 2.7 M NaOH). Make up to the mark with additionally purified water. • 0.62 M HCl Add a few millilitres (e.g. 20 mL) of additionally purified water to a 200 mL volumetric flask, add 10.280 mL of concentrated HCl, mix and make up to the mark with additionally purified water. • 2.7 M NaOH Weigh accurately about 1.092 g of NaOH pellets into a 10 mL volumetric flask and dissolve it in additionally purified water. Cool to room temperature and make up to the mark with the same solvent. • Reagent DAN Weigh accurately about 5 mg of 2,3-diaminophthalene into a 100 mL volumetric flask and dissolve it with the solvent (methanol/water 1:1 (v/v)). Dilute up to the mark and ensure visual full dissolution. Use an amberglass flask. • Mobile phase A Mix 950 mL of 10 mM KH2PO4 solution (pH=8) and add 50 mL methanol. • Mobile phase B Methanol. • Solvent Methanol/water 1:1 (v/v), e.g. mix 2000 mL of additionally purified water and 2000 mL methanol.
• Instrument: HPLC with FLR detector; e.g. Waters Arc or equivalent • Column: C18 50×4.6 mm, 2.5 μm, e.g. XBridge C18 2.5 μm, 4.650 mm or equivalent
• Notes It is recommended to wear additional protective equipment (face mask and gloves) during weighing. • It is recommended to wash the column with 50% methanol after the analysis (example of preparation: mix 500 mL methanol and 500 m1 of additionally purified water). • It is recommended to rinse the injector with solvent after each injection. • All glassware and tools should be rinsed with additionally purified water before use. It is not recommended to leave the solutions open for a longer time before measurement. • Blank solution 1 Transfer 1 mL of solvent into a HPLC vial and perform derivatization as described below. • Blank solution 2 Transfer 10 mL of solvent into a single use glass vial and mix it on a magnetic stirrer for 30 min. Transfer the solution into a 5 mL centrifuge tube and centrifuge for 10 min at 12000 rpm. […] Fill up to the mark with solvent and mix. • (Cnitrite≈0.0005 mg/mL) • Comparison solution Transfer 10 mL of nitrite stock solution into a 500 mL volumetric flask. • (2 parallels) Fill up to the mark with solvent and mix. • Transfer 1 mL solution into a HPLC vial and perform the derivatization as described below. • (Cnitrite≈100 ppb) • Sample solution Accurately weigh about 1000 mg of the sample into a glass vial for single use and add 10 mL of solvent.

[3] = ribociclib base (LEE011 B10), ion chromatography
[4] = additional batches of ribociclib base LEE011-B10 (IP-1)
[5] = nitrite in iPrOH <5 ppb (1.3 ppb extrapolated)
[6] = nitrite in iPrOH <5 ppb (3.1 ppb extrapolated)

Row | DMP433 [ppm] LOQ (0.0625 ppm) [1] | DMP433 [ppm], result in brackets (extrapolation, estimate of actual value below LOQ) [1] [ppm] | Nitrite [ppm] LOD (1 ppm) [2, 3] | DMP433 (LOQ: 30 ppb) [1] [ppb] | Nitrite (LOQ: 0.1 ppm) [2] [ppm] | Nitrite, value in brackets below LOQ [2] [ppm] | further results | SMILES
1 | LOQ | 0.060 | <LOD |  |  |  |  | CN(C)C(=O)c1cc2cnc(Nc3ccc(N4CCNCC4)cn3)nc2n1C1CCCC1 [Batch 805193A072]
2 | LOQ | 0.030 | <LOD |  |  |  |  | CN(C)C(=O)c1cc2cnc(Nc3ccc(N4CCNCC4)cn3)nc2n1C1CCCC1 [Batch 805193A073]
3 | LOQ | 0.029 | <LOD |  |  |  |  | CN(C)C(=O)c1cc2cnc(Nc3ccc(N4CCNCC4)cn3)nc2n1C1CCCC1 [Batch 805193A074]
4 |  |  |  |  |  |  | DMP433 [ppb] [1, 4]: 51 ppb; Nitrite [ppm] LOD (1 ppm) [2, 4]: <LOD | CN(C)C(=O)c1cc2cnc(Nc3ccc(N4CCNCC4)cn3)nc2n1C1CCCC1 [Batch 805193A077]
5 |  |  |  |  |  |  | DMP433 in LEE011-B10 ([1]; B10 starting material of resin experiments): DMP433: 92 ppb; DMP433 [ppb] [1, 4]: 78 ppb; DMP433 in LEE011 B12 ([1]; nitrite in iPrOH 119.6 ppb): 14238 ppb; DMP433 in LEE011 B12 ([1]; nitrite in iPrOH 162.7 ppb): 18011 ppb; DMP433 in LEE011 B12 [1, 5]: 995 ppb; DMP433 in LEE011 B12 [1, 6]: 1513 ppb; DMP433 in LEE011-B12 (IP) ([1]; resin treatment of B10/IPA solution): 220 ppb; DMP433 in LEE011-B12 (IP) ([1]; resin treatment only IPA (nitrite carryover from B10 remained)): 528 ppb; Nitrite [ppm] LOD (1 ppm) [2, 4]: <LOD; Nitrite in LEE011 B12 [2, 5]: 448 ppb; Nitrite in LEE011 B12 [2, 6]: 326 ppb | CN(C)C(=O)c1cc2cnc(Nc3ccc(N4CCNCC4)cn3)nc2n1C1CCCC1 [Batch 805193A078]
6 |  |  |  | 55.8 | < 0.1 | 0.08 |  | CN(C)C(=O)c1cc2cnc(Nc3ccc(N4CCNCC4)cn3)nc2n1C1CCCC1 [Batch 805193A095]
7 |  |  |  | 70.5 | < 0.1 | 0.05 |  | CN(C)C(=O)c1cc2cnc(Nc3ccc(N4CCNCC4)cn3)nc2n1C1CCCC1 [Batch 805193A096]
8 |  |  |  | 73.9 | < 0.1 | 0.07 |  | CN(C)C(=O)c1cc2cnc(Nc3ccc(N4CCNCC4)cn3)nc2n1C1CCCC1 [Batch 805193A097]
9 |  |  |  | 78.8 | < 0.1 | 0.07 |  | CN(C)C(=O)c1cc2cnc(Nc3ccc(N4CCNCC4)cn3)nc2n1C1CCCC1 [Batch 805193A098]
10 |  |  |  |  |  |  | DMP433 [ppb] ([1]; LEE011-DS, further testing): 380 ppb; Nitrite (ppb) [2]: 369 ppb | CN(C)C(=O)c1cc2cnc(Nc3ccc(N4CCNCC4)cn3)nc2n1C1CCCC1.O=C(O)CCC(=O)O [Batch 833268A258]
11 |  |  |  |  |  |  | DMP433 [ppb] ([1]; LEE011-DS, further testing): 395 ppb; Nitrite (ppb) [2]: 284 ppb | CN(C)C(=O)c1cc2cnc(Nc3ccc(N4CCNCC4)cn3)nc2n1C1CCCC1.O=C(O)CCC(=O)O [Batch 833268A259]
12 | LOQ | 0.047 | <LOD |  |  |  |  | CN(C)C(=O)c1cc2cnc(Nc3ccc(N4CCNCC4)cn3)nc2n1C1CCCC1 [Batch 923037A002]
13 | LOQ | 0.048 | <LOD |  |  |  |  | CN(C)C(=O)c1cc2cnc(Nc3ccc(N4CCNCC4)cn3)nc2n1C1CCCC1 [Batch 923037A005]
